The values below come from ChEMBL document CHEMBL5346971, “Discovery of the First Irreversible HDAC6 Isoform Selective Inhibitor with Potent Anti-Multiple Myeloma Activity” (J Med Chem, 2023).

The target in one test is Histone deacetylase 4 (Homo sapiens, UniProt P56524). The test is described as follows: Inhibition of N-terminal GST-tagged/C-terminal His-tagged human HDAC4 (627 to 1084 residues) expressed in baculovirus-infected Sf9 cells using Boc-Lys(trifluoroacety1)-AMC as substrate preincubated with enzyme for 1 hr followed by substrate addition and measured after 30 mins by fluorescence based analysis.
Sequence of Histone deacetylase 4 (P56524 whole entry, the tested form may be a part): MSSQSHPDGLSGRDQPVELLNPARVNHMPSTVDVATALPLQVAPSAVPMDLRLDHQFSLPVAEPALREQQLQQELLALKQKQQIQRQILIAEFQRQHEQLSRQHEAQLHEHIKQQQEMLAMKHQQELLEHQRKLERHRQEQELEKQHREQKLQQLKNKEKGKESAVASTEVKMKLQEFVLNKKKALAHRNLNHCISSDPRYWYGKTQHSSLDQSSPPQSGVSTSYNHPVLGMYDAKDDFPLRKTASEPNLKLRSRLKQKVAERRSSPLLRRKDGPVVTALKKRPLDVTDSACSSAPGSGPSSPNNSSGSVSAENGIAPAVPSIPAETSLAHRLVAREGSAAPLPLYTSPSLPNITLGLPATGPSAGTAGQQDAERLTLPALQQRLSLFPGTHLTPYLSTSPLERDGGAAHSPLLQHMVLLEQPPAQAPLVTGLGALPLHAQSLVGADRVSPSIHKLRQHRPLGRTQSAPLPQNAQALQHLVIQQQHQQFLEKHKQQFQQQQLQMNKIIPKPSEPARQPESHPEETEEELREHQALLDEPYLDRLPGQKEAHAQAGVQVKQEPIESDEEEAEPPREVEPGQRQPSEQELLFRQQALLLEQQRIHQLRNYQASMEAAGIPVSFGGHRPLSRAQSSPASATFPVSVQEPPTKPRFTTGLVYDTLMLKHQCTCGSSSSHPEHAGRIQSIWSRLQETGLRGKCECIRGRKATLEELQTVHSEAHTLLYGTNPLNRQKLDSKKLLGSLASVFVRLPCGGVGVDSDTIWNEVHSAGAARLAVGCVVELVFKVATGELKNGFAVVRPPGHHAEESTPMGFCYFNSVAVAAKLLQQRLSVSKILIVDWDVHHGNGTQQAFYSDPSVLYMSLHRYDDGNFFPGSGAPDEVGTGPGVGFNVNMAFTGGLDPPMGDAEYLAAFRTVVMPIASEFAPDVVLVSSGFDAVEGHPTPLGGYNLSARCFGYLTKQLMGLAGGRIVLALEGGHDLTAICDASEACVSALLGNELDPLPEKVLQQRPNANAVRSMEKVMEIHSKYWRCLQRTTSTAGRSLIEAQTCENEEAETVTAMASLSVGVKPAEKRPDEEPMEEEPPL

In the next test the target is T1, Histone deacetylase 7 (Homo sapiens, UniProt Q8WUI4).
T1 sequence (Q8WUI4 whole entry): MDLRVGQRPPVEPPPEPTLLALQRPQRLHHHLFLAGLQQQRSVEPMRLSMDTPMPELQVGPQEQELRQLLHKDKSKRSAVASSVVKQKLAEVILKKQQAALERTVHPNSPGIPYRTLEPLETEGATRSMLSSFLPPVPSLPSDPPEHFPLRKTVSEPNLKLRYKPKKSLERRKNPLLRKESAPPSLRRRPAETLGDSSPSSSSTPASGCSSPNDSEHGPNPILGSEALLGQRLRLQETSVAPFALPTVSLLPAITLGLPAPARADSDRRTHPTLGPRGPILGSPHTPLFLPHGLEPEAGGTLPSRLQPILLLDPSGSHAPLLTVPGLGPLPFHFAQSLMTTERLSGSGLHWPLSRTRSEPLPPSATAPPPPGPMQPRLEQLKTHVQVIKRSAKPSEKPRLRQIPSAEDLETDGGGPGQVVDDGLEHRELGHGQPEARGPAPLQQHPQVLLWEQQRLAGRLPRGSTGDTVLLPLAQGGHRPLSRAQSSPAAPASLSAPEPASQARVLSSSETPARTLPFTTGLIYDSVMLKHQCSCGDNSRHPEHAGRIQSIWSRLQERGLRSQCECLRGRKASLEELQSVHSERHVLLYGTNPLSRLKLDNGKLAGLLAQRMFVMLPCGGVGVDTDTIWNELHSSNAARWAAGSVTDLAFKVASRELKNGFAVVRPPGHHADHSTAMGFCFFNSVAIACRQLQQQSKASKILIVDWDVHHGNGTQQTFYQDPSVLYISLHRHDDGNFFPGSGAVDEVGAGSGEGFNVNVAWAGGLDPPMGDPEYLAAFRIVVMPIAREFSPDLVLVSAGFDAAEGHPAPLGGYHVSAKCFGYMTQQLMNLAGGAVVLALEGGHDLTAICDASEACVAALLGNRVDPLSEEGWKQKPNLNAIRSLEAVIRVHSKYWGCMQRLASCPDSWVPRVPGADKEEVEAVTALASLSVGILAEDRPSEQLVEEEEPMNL
The test can be described thus: Inhibition of N-terminal GST-tagged human HDAC7 (518 to end residues) expressed in baculovirus-infected Sf9 cells using Boc-Lys(trifluoroacety1)-AMC as substrate preincubated with enzyme for 1 hr followed by substrate addition and measured after 30 mins by fluorescence based analysis.

For a further test, the target named is T2, Histone deacetylase 11 (Homo sapiens, UniProt Q96DB2).
T2 sequence (Q96DB2 whole entry): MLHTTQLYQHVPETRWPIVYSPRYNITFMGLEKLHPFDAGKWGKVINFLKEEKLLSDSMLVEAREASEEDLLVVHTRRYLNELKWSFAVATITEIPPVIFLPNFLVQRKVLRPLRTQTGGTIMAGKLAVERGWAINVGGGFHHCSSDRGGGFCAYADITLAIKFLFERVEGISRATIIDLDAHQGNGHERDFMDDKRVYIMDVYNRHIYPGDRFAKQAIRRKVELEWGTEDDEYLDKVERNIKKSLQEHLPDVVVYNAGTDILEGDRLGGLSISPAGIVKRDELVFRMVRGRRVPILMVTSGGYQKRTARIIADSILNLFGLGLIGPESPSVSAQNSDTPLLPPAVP
The test can be described thus: Inhibition of human full length recombinant HDAC11 (1 to 347 residues) expressed in Sf9 cells using acetyl-ETDKmyr-AMC as substrate preincubated with enzyme for 1 hr followed by substrate addition and measured after 30 mins by fluorescence based analysis.

A further test concerns RPMI-8226. The test is described as follows: Induction of apoptosis in human RPMI-8226 cells incubated for 24 hrs by AnnexinV-FITC/PI staining based flow cytometry. The class given is functional, cell-based. The following applies: dose 0.1-0.5 µM. On the technique in general: A flow cytometer gives signals particle by particle.

For `O=C(NO)c1ccc(COc2no[n+]([O-])c2S(=O)(=O)c2ccccc2)cc1`, the half-inhibitory concentration (IC50) is over 40 µM against Histone deacetylase 4, over 40 µM against Histone deacetylase 7 and 5.3 µM on Histone deacetylase 11. Moreover, in the test with RPMI-8226, the Activity result was “Dose-Dependent Effect”.

As a reminder, the IC50 is the midpoint of a concentration-inhibition curve.
